Common to all, as to type: cell-based
Assay [1] relates to K562 cells (chronic myeloid leukemia cells) [만성 골수성 백혈병 세포(K562)]. The assay can be described thus: Cell viability (CCK-8) in CML cells K562. As to conditions: K562 vs U937 or KG-1α; 0.5, 1, 2 and 4 mM; 24 h; in words, not shown in Table 1.
In assay [2] the test system is KG-1α cells (refractory or relapsed acute myeloid leukemia cells) [불응성 또는 재발성 급성 골수성 백혈병 세포(KG-1α)]. The assay can be described thus: Change of ATP production in KG-1α cells (ATPlite 1step kit). As to conditions: 4 mM, 20 min, 37℃, control PBS, FIG. 3, in words. In general terms: ATP-based viability assays read luminescence as a measure of living cells.
Assay [3] shares this test system. The assay can be described thus: Change of mitochondrial oxygen consumption rate in KG-1α cells. As to conditions: 0, 0.5, 1, 2, 4 mM, 20 min, FIG. 2, in words.
Assay [4] deals with U937 cells (acute myeloid leukemia cells) [급성 골수성 백혈병 세포(U937)]. Kind of assay: cells. As to conditions: for cell killing effect: acute leukemia cells (U937), 0.5, 1, 2 and 4 mM, 24 h, in words.
For assay [5], the system named is KG-1α cells (refractory or relapsed acute myeloid leukemia cells) [불응성 또는 재발성 급성 골수성 백혈병 세포(KG-1α)]. Kind of assay: Cell viability (CCK-8) in refractory/relapsed AML cells KG-1α. As to conditions: for viability at 500 µM / viability at 1000 µM / viability at 2000 µM / viability at 4000 µM: Homo sapiens, KG-1, 24 h, read-out: cell viability; for cell killing effect: KG-1α, 0.5, 1, 2 and 4 mM, 24 h, in words.

Setting [6] is: Homo sapiens, U-937, 24 h, read-out: cell viability.

Consider `C#CCN(C)[C@H](C)Cc1ccccc1` [셀레질린, selegiline], for which, in assay [1], the “cell killing effect in K562 compared with U937 or KG-1α” value is “만성 골수성 백혈병 세포(K562)에 대한 세포 사멸 효과 보다는 급성 골수성 백혈병 세포(U937) 또는 불응성 또는 재발성 급성 골수성 백혈병 세포(KG-1α)에 대한 세포 사멸 효과가 우수하였다”. Further, the ATP production result in assay [2] was “ATP 생성이 감소됨”. In addition, the oxygen consumption rate result in assay [3] is “산소 소모율이 농도 의존적으로 감소함”. In addition, the cell killing effect result in assay [4] was “세포 사멸 효과를 모두 나타내는 것”. For the same compound, in assay [5], the viability (usually a per cent measure of how many cells are alive, often set against a control) at 500 µM was found to be 93.1%; the viability at 1000 µM is 86%; the viability at 2000 µM turned out to be 63%; the viability at 4000 µM is 51.8%. Further, in assay [5], the cell killing effect entry was “세포 사멸 효과가 우수하게 나타남”.
Take `Nc1ccn([C@@H]2O[C@H](CO)[C@@H](O)[C@@H]2O)c(=O)n1` [시타라빈]: in assay [4] (setting [6]), the viability at 500 µM amounted to 45.3%, the viability at 1000 µM is 43.9%, the viability at 2000 µM turned out to be 40.9% and the viability at 4000 µM is 40.7%. Also, the cell killing effect entry in assay [4] was “세포 사멸 효과는 우수하였으나”. For the same compound, in assay [5], the viability at 500 µM amounted to 95.2%, the viability at 1000 µM stood at 96.9%, the viability at 2000 µM came to 97.7% and the viability at 4000 µM turned out to be 95.3%. For the same compound, the cell killing effect result in assay [5] was “세포 사멸 효과를 나타내지 않은”.

The record behind these values is KR20190134073A, “셀레질린을 유효성분으로 포함하는 급성 골수성 백혈병의 예방 또는 치료용 약학 조성물” (충남대학교산학협력단, priority 2018, dated 2019).
